# Data reported in US20030220280A1, “Schwann cell bridge implants and phosphodiesterase inhibitors to stimulate CNS nerve regeneration” (priority 2002, published 2003).
# Key:
# Type in all cases: in vivo, rat
# [1] = test system: rats with a complete spinal cord transection at thoracic cord segment 8; experiment: BBB test of hindlimb locomotion after complete spinal cord transection with Schwann cell bridge; settings: rolipram by minipump 0.07 μmol/kg/hr for two weeks, assessed weekly
# Text: Schwann cells were purified in culture from adult rat sciatic nerve (according to the methods described by Morrissey, Kleitman and Bunge (1991)). The purity of the Schwann cells used for transplantation was between 95 and 98%.
# For Schwann cell bridges, cells were suspended in matrigel/DMEM (30:70) and drawn into 3-8 mm long polymer guidance channels at a density of 120×10^6 cells/ml, as described by Xu et al. (1997). During implantation into adult rats (Fischer rats, Charles River Laboratories, 3-5 months old), each cut stump of the severed spinal cord was inserted 1 mm into the channel. Sometimes the Schwann cell cable is transplanted without the guidance channel. Either method, with or without the channel, is readily accomplished by persons who have performed this procedure a number of times and so have gained adequate expertise to accomplish this.
# Spinal cords of adult rats were completely transected by surgery at the T8 cord level and the next caudal segment was removed. At the time of transection, a Schwann cell bridge was implanted at the injury site, 50 mM db-cAMP was injected (0.2 μl) or infused (5 μl) into the proximal and distal stump of the lesion and rolipram was delivered subcutaneously via minipump at 0.07 μmol/kg/hr for two weeks. […] Animals were assessed on a weekly basis for hindlimb locomotion, a measure of motor recovery, using the BBB test. […]
# [2] = test system: rats with a moderate contusion injury at thoracic cord segment 8; experiment: Gridwalk test for fine locomotor performance after moderate contusion injury; settings: FIG. 4; 8 weeks after moderate contusion; 1 m gridwalk, maximum 20 errors
# Text: FIG. 4 compares footfall errors in a gridwalking analysis 8 weeks after a moderate contusion injury by weight drop (NYU impactor, 12.5 mm height) followed by db-cAMP administration plus Schwann cell transplantation with or without rolipram. Each treatment used 4 injection sites, 2-3 mm rostral and caudal to the injury site and on either side of the midline. A. Non-injured control; B. 1 week post-injury 2×10^6 Schwann cells injected into the injury site with saline; C. 1 week post-injury 2×10^6 Schwann cells injected with 4×0.2 μL×1 mM db-cAMP; D. 1 week post-injury 2×10^6 Schwann cells with 4×0.2 μL×50 mM db-cAMP; E. 1 day post-injury 2×10^6 Schwann cells with 4×0.2 μL×50 mM db-cAMP; F. animals received rolipram by minipump starting within 30 minutes of the injury (0.07 μmol/kg/hr for 2 weeks after injury) and 1 week later 2×10^6 Schwann cells with 4×0.2 μL×50 mM db-cAMP.
# (§1) Adult rats (Fischer rats, Charles River Laboratories, 3-5 months old) were injured in the thoracic level of the spinal cord with the NYU weight drop device (NYU impactor) as described in Gruner (1992), and rolipram (0.07 μmol/kg/hr) was administered for two weeks. […]
# The number of footfall errors that the animal makes is recorded (maximum is 20, 1 per leg per space between each bar) with higher scores indicating a poor ability to perform the tasks.
# [3] = test system: rats with a moderate contusion injury at thoracic cord segment 8; experiment: BBB test of hindlimb locomotion after moderate contusion injury with Schwann cell injection; settings: FIG. 3, tested weekly
# Procedure: FIG. 3 compares the effects over time of db-cAMP injection and rolipram on BBB scores of rats receiving Schwann cell transplantation after receiving moderate contusion injury to the spinal cord by weight drop (NYU impactor, 12.5 mm height). Each treatment used 4 injection sites, 2-3 mm rostral and caudal to the injury site and on either side of the midline. Diamonds: 2×10^6 Schwann cells were injected into the injury site with saline injection one week post-injury; squares: 2×10^6 Schwann cells with 0.2 μL×1 mM db-cAMP (four injections) one week postinjury; triangles: 2×10^6 Schwann cells with 0.2 μL×50 mM db-cAMP (four injections) one week post-injury; crosses: 2×10^6 Schwann cells with 0.2 μL×50 mM […] (four injections) one day post-injury; circles: animals received rolipram by minipump starting within 30 minutes of the injury (0.07 μmol/kg/hr for 2 weeks after injury) and 1 week later Schwann cells with 0.2 μL×50 mM db-cAMP (four injections).
# as §1
# [4] = test system: rats with a moderate contusion injury at thoracic cord segment 8; experiment: Footprint analysis after moderate contusion injury; settings: FIGS. 5-7; 8 weeks after moderate contusion; conditioned locomotion
# Procedure: FIG. 5 compares stride length in a footprint analysis conducted 8 weeks after a moderate contusion injury by weight drop followed by db-cAMP administration plus Schwann cell transplantation with or without rolipram. Each treatment used 4 injection sites, 2-3 mm rostral and caudal to the injury site and on either side of the midline. A. Non-injured control; B. 1 week post-injury 2×10^6 Schwann cells injected into the injury site with saline; C. […]
# FIGS. 5, 6 and 7 illustrate the locomotor patterns of injured rats that received various treatments, tested by inking both the fore- and hind-paws (different colors), allowing them to walk 1 m on an enclosed, flat runway and then analyzing the footprints. Recorded parameters from 8 consecutive steps included the animal's stride length (measured between the central pads of two consecutive prints on each side of the animal), base of support (determined by measuring the distance between the central pads of the hindpaws), and hindfoot outward rotation. […]
structure (smiles),measurement,setting,value
"CCCC(=O)Nc1ncnc2c1ncn2[C@@H]1O[C@@H]2COP(=O)(O)O[C@H]2[C@H]1OC(=O)CCC [db-cAMP, dibutyryl-cAMP]",hindlimb locomotion (BBB test),"[1]; FIG. 1, db-cAMP injected (0.2 μl) into both stumps",not observed
same,hindlimb locomotion (BBB test),"[1]; FIG. 2, db-cAMP infused (5 μl) into both stumps",not observed
same,ability to perform fine motor tasks (footfall errors on gridwalk),[2],exhibited many more errors
same,hindlimb locomotion (BBB test),[3],not observed
same,outward foot rotation in footprint analysis,[4],did not exhibit a similar level of recovery
same,trunk stability (base of support) in footprint analysis,[4],did not exhibit a similar level of recovery
